Source: patent publication US20230021647A1, “METHOD OF TREATING A PATIENT INFECTED WITH A CORONAVIRUS AND HAVING A BASELINE LEVEL OF CRP BELOW 150 MG/L” (Theravance Biopharma R&D IP, LLC, priority 2021, published 2023)
Marks after values point to notes of the source that are not given here.

What was measured:
[1] = tested on: acute lung injury associated with COVID-19; assay: Phase 2 study Part 1, multiple ascending dose in hospitalized COVID-19 patients; type: in vivo, human; settings: for # Subjects Alive: Part 1, COVID-19 patients
[2] = tested on: acute lung injury associated with COVID-19; assay: Phase 2 study Part 2, 3 mg vs placebo in hospitalized COVID-19 patients; type: in vivo, human; settings: for time to recovery, median: placebo 11
Method: Eligible subjects were stratified by age (≤60 vs >60 years) and concurrent use of antiviral medications (e.g., remdesivir, lopinavir, chloroquine) at baseline. […] Approximately 20% of participants were enrolled with a baseline clinical status score of six (NIPPV or high flow oxygen device) based on the 8-point ordinal scale (Table 13).
The study drug was administered at 3 mg once-daily in a single dose with an additional 3 mg loading dose on day 1, for up to 7 days or until discharge from the hospital, whichever was earlier. Subjects were followed for up to 28 days or until death, whichever was earlier.
Matching placebo was administered once daily for up to 7 days, via inhalation using a vibrating mesh nebulizer.
In Part 2, the primary endpoint was the number of RFDs from randomization through Day 28. Secondary Endpoints were: change from baseline in SaO2/FiO2 ratio on Day 7, proportion of subjects in each category of the 8-point clinical status scale on Days 7, 14, 21 and 28, and proportion of subjects alive and respiratory failure-free on Day 28. […] Additional exploratory endpoints may include: change from baseline in SaO2/FiO2 ratio in mmHg on Day 7, number of VFDs from randomization to Day 28, proportion of subjects with a SaO2/FiO2 ratio >300 on Days 5 and 7, proportion of subjects in each category of the 6-point clinical status scale on Days 7, 14, 21 and 28, proportion of subjects in each category of vital status (death, discharge, hospitalized) on Days 7, 14, 21 and 28, proportion of subjects with an oxygen saturation >90% on room air, proportion of subjects with fever (>37° C. oral or equivalent), chest imaging (when done for clinical care reasons), biomarkers including: nasal SARS-CoV-2 viral load. The safety endpoints were: change from baseline in vital signs and clinical laboratory results, and incidence and severity of TEAEs. The PK endpoints were population PK parameters for compound 1.
The primary endpoint was the number of respiratory failure-free days (RFDs) from randomization through Day 28. A RFD was defined as a day that a subject is alive and not requiring the use of invasive mechanical ventilation, non-invasive positive pressure ventilation, high-flow oxygen devices, or oxygen supplementation from randomization through Day 28. A clinical status score of <4 (Table 13) was equivalent to a respiratory failure-free day. The number of RFDs was 0 for subjects who use respiratory support for 28 days or longer, or for subjects who died on or before Day 28.
Treatment comparisons were performed using a Van Elteren test (a stratified Wilcoxon rank sum test) adjusting for stratification factors. Treatment difference were summarized based on median of RFD between compound 1 and placebo. Additional prognostic baseline covariates (e.g., comorbidities) were included in the sensitivity analyses.
For SaO2/FiO2, treatment comparisons versus placebo were conducted using a mixed-model repeated measures (MMRM) model. The model included fixed effects for randomized treatment group, study day (Day 7, 14, 21 and 28), treatment group by study day interaction, baseline SaO2/FiO2 ratio, treatment group by baseline SaO2/FiO2 ratio interaction, and stratification factors (baseline age group ≤60 vs >60 years, and concurrent use of antiviral medication at baseline Yes vs. No). A random effect for subject was also included in the model. An unstructured covariance matrix was used to estimate covariance of within-patient scores. The Kenward-Roger approximation was used to estimate denominator degrees of freedom. From this model, least squares means, standard errors, treatment differences in LS means, and 95% confidence intervals (CIs) were estimated.

[3] = Part 1, 10 mg QD inhaled, Day 28

CCc1cc(O)ccc1-c1ccc2c(-c3nc4c([nH]3)CN(C(C)C)[C@H](C(=O)N3CC(N(C)C)C3)C4)n[nH]c2c1 [Compound 1, (S)-(3-(dimethylamino)azetidin-1-yl)(2-(6-(2-ethyl-4-hydroxyphenyl)-1H-indazol-3-yl)-5-isopropyl-4,5,6,7-tetrahydro-3H-imidazo[4,5-c]pyridin-6-yl)methanone]
Died (All-Cause Mortality) ([1]; Part 1, 10 mg QD inhaled): 0 subjects (%)
# Subjects Respiratory Failure-Free [1, 3]: 6 (100.0%) subjects (%)
Proportion of Subjects Alive and Respiratory Failure-free [1, 3]: 6 (100.0%) subjects (%)
Hospital Discharge ([1]; Part 1, 10 mg, Day 7): 0 subjects (%)
Hospital Discharge ([1]; Part 1, 10 mg, Day 14): 2 (33.3%) subjects (%)
Hospital Discharge ([1]; Part 1, 10 mg, Day 21): 6 (100%) subjects (%)
Clinical Status 1-Not hospitalized, no limitations on activities ([1]; Part 1, 10 mg, Day 28): 5 (83.3%) subjects (%)
Clinical Status 2-Not hospitalized, but with limitations on activities and/or requiring home oxygen ([1]; Part 1, 10 mg, Day 28): 1 (16.7%) subjects (%)
Clinical Status 3-Hospitalized, not requiring supplemental oxygen, and no longer requiring ongoing medical care ([1]; Part 1, 10 mg, Day 28): 0 subjects (%)
Clinical Status 4-Hospitalized, not requiring supplemental oxygen, but requiring ongoing medical care ([1]; Part 1, 10 mg, Day 28): 0 subjects (%)
Clinical Status 5-Hospitalized, requiring supplemental oxygen ([1]; Part 1, 10 mg, Day 28): 0 subjects (%)
Clinical Status 6-Hospitalized, on non-invasive ventilation or high-flow oxygen devices ([1]; Part 1, 10 mg, Day 28): 0 subjects (%)
Clinical Status 7-Hospitalized, on invasive mechanical ventilation or extracorporeal membrane oxygenation ([1]; Part 1, 10 mg, Day 28): 0 subjects (%)
Clinical Status 8-Death ([1]; Part 1, 10 mg, Day 28): 0 subjects (%)
Hospital Discharge ([1]; Part 1, 10 mg, Day 28): 6 (100%) subjects (%)
subjects discharged from the hospital ([1]; Part 1, 10 mg, by Day 21 (placebo 50%)): 100%
# Subjects Alive ([1]; 1 mg QD inhaled, Day 28): 5 (83.3%) subjects (%)
# Subjects Alive ([1]; 3 mg QD inhaled, Day 28): 7 (100.0%)* subjects (%)
# Subjects Alive ([1]; 10 mg QD inhaled, Day 28): 6 (100.0%) subjects (%)
trend vs placebo in oxygenation, clinical status, mortality, respiratory-failure free, time to discharge, Borg Dyspnea Score ([1]; Part 1, all compound 1 groups): positive trend
trend in reduction of inflammation markers (hsCRP, IFN-g, IL-6, IP-10) and RAGE ([1]; Part 1, mostly 3 mg and 10 mg doses): positive trend
plasma exposure ([2]; Part 2): low
tolerability ([2]; Part 2): well-tolerated
serious infections, patients ([2]; Part 2, placebo 2.0%): 1.0%
venous thromboembolism, patients ([2]; Part 2, placebo 4.9%): none
adverse events of liver abnormalities or disease, patients ([2]; Part 2, placebo 7.8%): 9.7%
patients discontinued from study, withdrawal for adverse event ([2]; Part 2, placebo 13 (12.7%)): 8 (7.8%) n (%)
serious adverse events, patients ([2]; Part 2, placebo 15.7%): 9.7%
adverse events, patients ([2]; Part 2, placebo 41.2%): 34.0%
secondary endpoints vs placebo: change in SaO2/FiO2 at Day 7, 8-point Clinical Status, alive and respiratory failure-free at Day 28 ([2]; Part 2 ITT): no difference
28-day all-cause mortality HR ([2]; Part 2 ITT vs placebo, p=0.08): 0.42
time to recovery HR ([2]; Part 2 ITT vs placebo, p=0.12): 1.27
RFDs from randomization through Day 28, median ([2]; Part 2 ITT, 3 mg QD, placebo 21, p=0.61): 21 days
time to recovery, median ([2]; Part 2 ITT): 10 days
28-day all-cause mortality, total number of deaths ([2]; Part 2 ITT, placebo 13): 6
28-day all-cause mortality HR ([2]; Part 2 post-hoc, baseline CRP <150 mg/L vs placebo, p=0.009): 0.097
time to recovery HR ([2]; Part 2 post-hoc, baseline CRP <150 mg/L vs placebo, p=0.02): 1.48
28-day all-cause mortality, total number of deaths ([2]; Part 2 post-hoc, baseline CRP <150 mg/L, placebo 9): 1
time to recovery, median ([2]; Part 2 post-hoc, baseline CRP <150 mg/L): 10 days
time to recovery or 28-day all-cause mortality vs placebo ([2]; Part 2 post-hoc, baseline CRP >150 mg/L (n=30)): no difference
